{"source": "paper PMC9226319", "about": "“Peripherally restricted transthyretin-based delivery system for probes and therapeutics avoiding opioid-related side effects” (Nature Communications, 2022)", "key": {"[1]": {"target": "human mu-opioid receptors (Homo sapiens, UniProt P35372)", "sequence (P35372 whole entry)": "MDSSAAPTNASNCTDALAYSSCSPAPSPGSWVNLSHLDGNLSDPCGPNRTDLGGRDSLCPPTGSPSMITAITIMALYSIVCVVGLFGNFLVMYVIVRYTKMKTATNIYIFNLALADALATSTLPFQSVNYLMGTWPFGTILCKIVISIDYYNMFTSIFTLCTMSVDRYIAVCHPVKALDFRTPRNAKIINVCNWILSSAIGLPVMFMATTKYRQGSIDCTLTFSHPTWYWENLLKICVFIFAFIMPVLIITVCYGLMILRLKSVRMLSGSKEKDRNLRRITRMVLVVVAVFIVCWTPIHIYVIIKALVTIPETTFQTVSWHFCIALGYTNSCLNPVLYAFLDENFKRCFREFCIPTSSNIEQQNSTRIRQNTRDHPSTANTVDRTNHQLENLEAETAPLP", "experiment": "biochemical", "type": "binding"}, "purified human TTR": {"target": "purified human TTR (Homo sapiens, UniProt P02766)", "experiment": "Fluorescence polarization (FP) binding assay, ligands to TTR in buffer"}, "TTR in human serum": {"target": "TTR in human serum (Homo sapiens, UniProt P02766)", "experiment": "TTR serum fluorescent probe exclusion (FPE) selectivity assay", "type": "binding", "conditions": "ligand 10 µM; for %FPE probe fluorescence: human serum, replicates"}}, "note": "Values joined by “and” are separate entries in the source; they are usually repeats but may differ in a detail not shown here. Equal entries are not always repeated."}
{"smiles": "C=CCN1CC[C@]23c4c5ccc(O)c4O[C@H]2[C@@H](OCc2cn(CCOCCOCCNCCCCCCOc4cc(OCCCc6c(C)n[nH]c6C)cc(C(=O)O)c4)nn2)CC[C@@]3(O)[C@H]1C5", "note": "[AG10-L1-Nal]", "values": [{"measurement": "fold decrease in mu-opioid receptor binding affinity when TTR was present", "setting": "[1]", "value": 9, "unit": "fold"}, {"measurement": "fold higher mu-opioid receptor binding affinity than naloxegol", "setting": "[1]", "value": 3.5, "unit": "fold"}, {"measurement": "fold lower mu-opioid receptor binding affinity than naloxone", "setting": "[1]", "value": 3, "unit": "fold"}, {"measurement": "Ki", "setting": "[1]; binding affinity to mu-opioid receptor (Ki)", "value": 0.81, "unit": "nM"}, {"measurement": "Ki", "setting": "[1]; binding affinity to mu-opioid receptor (Ki) in the presence of TTR", "value": 7.4, "unit": "nM"}, {"measurement": "Kd", "setting": "purified human TTR", "value": 485, "unit": "nM"}, {"measurement": "% Fluorescence polarization (mean)", "setting": "purified human TTR; log [nM] inhibitor 0.990", "value": 100.000, "unit": "%"}, {"measurement": "% Fluorescence polarization (mean)", "setting": "purified human TTR; log [nM] inhibitor 1.291", "value": 101.730, "unit": "%"}, {"measurement": "% Fluorescence polarization (mean)", "setting": "purified human TTR; log [nM] inhibitor 1.592", "value": 105.820, "unit": "%"}, {"measurement": "% Fluorescence polarization (mean)", "setting": "purified human TTR; log [nM] inhibitor 1.893", "value": 101.210, "unit": "%"}, {"measurement": "% Fluorescence polarization (mean)", "setting": "purified human TTR; log [nM] inhibitor 2.194", "value": 93.370, "unit": "%"}, {"measurement": "% Fluorescence polarization (mean)", "setting": "purified human TTR; log [nM] inhibitor 2.495", "value": 87.150, "unit": "%"}, {"measurement": "% Fluorescence polarization (mean)", "setting": "purified human TTR; log [nM] inhibitor 2.796", "value": 78.760, "unit": "%"}, {"measurement": "% Fluorescence polarization (mean)", "setting": "purified human TTR; log [nM] inhibitor 3.097", "value": 63.020, "unit": "%"}, {"measurement": "% Fluorescence polarization (mean)", "setting": "purified human TTR; log [nM] inhibitor 3.398", "value": 50.120, "unit": "%"}, {"measurement": "% Fluorescence polarization (mean)", "setting": "purified human TTR; log [nM] inhibitor 3.699", "value": 44.570, "unit": "%"}, {"measurement": "% Fluorescence polarization (mean)", "setting": "purified human TTR; log [nM] inhibitor 4.000", "value": 22.560, "unit": "%"}, {"measurement": "% Fluorescence polarization (mean)", "setting": "purified human TTR; log [nM] inhibitor […]", "value": 0.000, "unit": "%"}, {"measurement": "% TTR occupancy in human serum", "setting": "TTR in human serum; FPE probe 3.6 µM, 3 h reading relative to probe alone, text mean ± s.d., table replicates", "value": "71.5 ± 1.8% and 70.26% and 71.49% and 74.04% and 70.09%"}, {"measurement": "%FPE probe fluorescence", "setting": "TTR in human serum; time 0.000 h", "value": 0.000, "unit": "%"}, {"measurement": "%FPE probe fluorescence", "setting": "TTR in human serum; time 0.083 h", "value": "1.080% and 0.767% and -1.456% and -0.892%"}, {"measurement": "%FPE probe fluorescence", "setting": "TTR in human serum; time 0.250 h", "value": "2.570% and 0.301% and -1.690% and -0.400%"}, {"measurement": "%FPE probe fluorescence", "setting": "TTR in human serum; time 0.500 h", "value": "1.410% and 3.016% and 1.843% and 4.013%"}, {"measurement": "%FPE probe fluorescence", "setting": "TTR in human serum; time 1.000 h", "value": "5.261% and 6.236% and 4.568% and 2.982%"}, {"measurement": "%FPE probe fluorescence", "setting": "TTR in human serum; time 1.250 h", "value": "9.024% and 8.732% and 5.446% and 7.822%"}, {"measurement": "%FPE probe fluorescence", "setting": "TTR in human serum; time 1.500 h", "value": "10.681% and 11.389% and 3.787% and 9.124%"}, {"measurement": "%FPE probe fluorescence", "setting": "TTR in human serum; time 1.750 h", "value": "16.590% and 14.034% and 12.392% and 15.982%"}, {"measurement": "%FPE probe fluorescence", "setting": "TTR in human serum; time 2.000 h", "value": "16.797% and 16.410% and 12.993% and 18.679%"}, {"measurement": "%FPE probe fluorescence", "setting": "TTR in human serum; time 2.250 h", "value": "24.164% and 18.098% and 17.162% and 21.660%"}, {"measurement": "%FPE probe fluorescence", "setting": "TTR in human serum; time 2.500 h", "value": "24.735% and 22.591% and 22.580% and 23.970%"}, {"measurement": "%FPE probe fluorescence", "setting": "TTR in human serum; time 2.750 h", "value": "27.729% and 25.808% and 22.823% and 27.770%"}, {"measurement": "%FPE probe fluorescence", "setting": "TTR in human serum; time 3.000 h", "value": "29.742% and 28.511% and 25.959% and 29.908%"}, {"measurement": "%FPE probe fluorescence", "setting": "TTR in human serum; time 3.500 h", "value": "34.408% and 33.995% and 32.949% and 35.412%"}, {"measurement": "%FPE probe fluorescence", "setting": "TTR in human serum; time 3.750 h", "value": "36.701% and 36.516% and 34.676% and 37.256%"}, {"measurement": "%FPE probe fluorescence", "setting": "TTR in human serum; time 4.000 h", "value": "39.055% and 39.875% and 38.359% and 40.118%"}, {"measurement": "%FPE probe fluorescence", "setting": "TTR in human serum; time 4.250 h", "value": "42.939% and 41.758% and 38.579% and 41.416%"}, {"measurement": "%FPE probe fluorescence", "setting": "TTR in human serum; time 4.500 h", "value": "43.175% and 42.158% and 39.564% and 43.974%"}, {"measurement": "%FPE probe fluorescence", "setting": "TTR in human serum; time 4.750 h", "value": "49.116% and 47.668% and 46.875% and 46.250%"}, {"measurement": "%FPE probe fluorescence", "setting": "TTR in human serum; time 5.000 h", "value": "48.320% and 48.257% and 45.947% and 47.487%"}, {"measurement": "%FPE probe fluorescence", "setting": "TTR in human serum; time 5.250 h", "value": "49.797% and 50.503% and 44.600% and 50.002%"}, {"measurement": "%FPE probe fluorescence", "setting": "TTR in human serum; time 5.500 h", "value": "51.668% and 52.681% and 50.017% and 50.897%"}, {"measurement": "%FPE probe fluorescence", "setting": "TTR in human serum; time 5.750 h", "value": "52.829% and 53.093% and 50.389% and 55.989%"}, {"measurement": "%FPE probe fluorescence", "setting": "TTR in human serum; time 6.000 h", "value": "53.052% and 53.791% and 49.880% and 55.657%"}]}
